Results: patent publication US20240358672A1, “APPLICATION OF GENISTEIN AND ITS PHOSPHATE ESTER DERIVATIVE AND PHARMACEUTICAL COMPOSITION COMPRISING THE SAME” (National Taiwan University, priority 2023, published 2024)

How the values were obtained:
CB1 receptor = CB1 receptor (Homo sapiens, UniProt P21554); test: GTPase-Glo assay (in vitro GTPase assay); format: biochemical
hiPSC-ECs [1] = test: qPCR gene expression in hiPSC-ECs; format: cell-based, human; settings: 48 hours
C57BL/6J mice = test: Echocardiographic analysis of mice
Description: FIG. 8A to 8C illustrate the effects of genistein and Δ^9-THC on cardiac contraction in vivo or in vitro experiments according to Example 9. […] After treatment exposure, the contractility, relaxation and peak force of EHT were measured using the Sony imaging platform. FIG. 8B: Same as the former, analysis of heart rate and contraction-relaxation (CR) interval (48 hours). […] Mice were anesthetized with 1%-2% isoflurane, and images were acquired in the parasternal long-axis (PLA) and parasternal short axis (PSA) on a Visualsonic Vevo 2100 platform. The ventricular (LV) dimensions were traced offline, and the ejection fraction (EF) was calculated using Simpson's biplane method of discs.
The inventor used engineered heart tissues (EHTs) composed of hiPSC-ECs and hiPSC-derived cardiomyocytes (hiPSC-CMs) to interrogate the effects of genistein and Δ^9-THC on contractility in vitro.

Apoe^−/− mice = test: Apoe−/− partial carotid artery ligation (PCAL) atherosclerosis model; format: in vivo, mouse; settings: HFD 10 days
Source text: FIG. 10A to 10C illustrate the effects of Δ^9-THC and genistein on the treatment of atherosclerosis in vivo using the Apoe^−/− mouse model according to Example 10. FIG. 10A: Gross images of carotid arteries after oil red O staining are shown (left panel). The scale bar represents 1 mm. A diagram of partial ligation of the carotid artery is shown (right panel). […] The right subclavian artery (RSA), right common carotid artery (RCA), and left subclavian artery (LSA) were unligated and remained patent. FIG. 10B: Carotid artery sections were counterstained with hematoxylin and eosin (H&E), and a representative slide was presented with scale bars at 100 μm (left panel). Oil red O staining of atherosclerotic plaques in cross-section of mouse carotid artery with scale bar at 100 μm. The atherosclerotic plaques were quantified (right panel). FIG. 10C: Carotid artery sections were immunostained with an anti-F4/80 antibody. […] Quantification of F4/80-positive area within carotid artery sections (top right). Carotid artery sections were immunostained with an anti-CD68 antibody. […] Quantification of CD68-positive area within carotid artery sections is shown (bottom right).
Further, an Apoe^−/− mouse model was also employed to investigate the effects of Δ^9-THC and cotreatment with genistein on atherosclerosis. Partial carotid artery ligation (PCAL) was performed in Apoe^−/− mice at 10-16 weeks. […] All mice were fed a HFD for 10 days. At the end of the treatment protocol, the Apoe^−/− mice were euthanized and subjected to histological analysis. […] Macrophage recruitment was tested using the macrophage-specific F4/80 antibody and CD68 antibody. […] Consistent with the Ldlr^−/− model findings, the Apoe^−/− PCAL mouse model found increased plaque size and increased macrophage recruitment with Δ^9-THC, and genistein cotreatment ameliorated these indices of atherosclerosis in ligated carotid arteries.

various organs = settings: in vivo
[2] = tested on: WT hiPSC-ECs and CB1 CRISPRi hiPSC-ECs; test: TNF-α challenge of WT and CB1 CRISPRi hiPSC-ECs; settings: 10 ng/ml TNF-α with 10 μM genistein
[3] = In vivo fluorescence imaging (IVIS) biodistribution; settings: inferred from BODIPY517/547-genistein distribution
Description: High-magnification images of the green-boxed area are shown with the scale bar at 100 mm. […] Total cell lysates were prepared, and the expression of phosphorylated NF-κB and NF-κB was analyzed by western blot analysis. Immunoblots were quantified by ImageJ software (left panel). […] The in vivo fluorescence images were detected by the IVIS Spectrum at indicated time points. All mice were sacrificed at 48 hours, and major organs were collected and then fixed using formalin (left panel). Fluorescence images were quantified using the IVIS imaging system. […] Images of the brain, heart and lung, thoracic aorta, liver, spleen, kidney, intestine, colon, and blood were obtained from mice (n=5) (right panel). Fluorescence images were quantified using the ImageJ software (middle bottom).

hiPSC-ECs [4] = test: Western blot / immunofluorescence of p38 and NF-κB (p65) in hiPSC-ECs; settings: 48 hours
HUVECs = test: qPCR gene expression in HUVECs; settings: 5 μM Δ^9-THC, 48 hours, normalized to GAPDH
[5] = Plasma concentration by LC-MS analysis; settings: Δ^9-THC 1 mg/kg
hiPSC-ECs [6] = test: CellTiter-Glo cell viability, hiPSC-ECs; settings: various concentrations, 24 or 48 hours
hiPSC-ECs [7] = test: Monocyte (U937) adhesion assay on hiPSC-ECs; settings: 5 μM Δ^9-THC alone, 48 hours
[8] = tested on: human endothelial cells (HUVECs and HCAECs); test: CellTiter-Glo cell viability, human endothelial cells; settings: increasing concentrations of Δ^9-THC, 48 hours
hiPSC-ECs [9] = test: CellROX oxidative stress assay / ROS-Glo H2O2 assay in hiPSC-ECs; settings: 5 μM Δ^9-THC alone, 48 hours
hiPSC-ECs [10] = test: Wash-out experiments, inflammation-related gene expression in hiPSC-ECs; settings: 5 μM Δ^9-THC 48 hours, then fresh medium
[11] = 10 μM genistein with 5 μM Δ^9-THC
[12] = single agent: Δ^9-THC 1 mg/kg i.p. or genistein 50 mg/kg p.o.
[13] = Δ^9-THC 1 mg/kg plus genistein 50 mg/kg

Sequence of CB1 receptor (P21554 whole entry): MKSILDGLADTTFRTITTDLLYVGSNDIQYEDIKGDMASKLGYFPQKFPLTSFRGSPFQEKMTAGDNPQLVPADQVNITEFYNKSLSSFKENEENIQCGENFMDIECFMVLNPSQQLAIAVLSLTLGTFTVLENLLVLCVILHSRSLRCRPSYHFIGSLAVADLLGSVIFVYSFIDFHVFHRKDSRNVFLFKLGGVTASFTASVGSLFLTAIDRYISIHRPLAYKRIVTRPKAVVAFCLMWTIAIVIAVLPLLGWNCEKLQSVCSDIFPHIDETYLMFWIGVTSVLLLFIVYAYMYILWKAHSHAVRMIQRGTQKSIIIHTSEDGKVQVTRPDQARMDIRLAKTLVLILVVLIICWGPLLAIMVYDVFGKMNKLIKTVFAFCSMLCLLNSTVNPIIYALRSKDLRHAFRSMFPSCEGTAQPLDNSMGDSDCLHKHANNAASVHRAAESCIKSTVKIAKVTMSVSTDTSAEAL

With O=c1c(-c2ccc(O)cc2)coc2cc(O)cc(O)c12 [genistein] the “function at CB1 in in vitro GTPase assay” value (CB1 receptor) was “neutral antagonist”, the “GTP turnover compared with Apo” value (CB1 receptor; GTPase-Glo assay) was “same GTP turnover as Apo” and the “NOS2 and NOX1 expression” value (hiPSC-ECs [1]; [11]) was “salutatory effect”. The “Δ^9-THC-induced TLR4 expression” value (hiPSC-ECs [1]; [11]) was “disrupted its expression”, the “cardiac structure or function (EF, HR, LVEDV, LVEDM)” value (“cardiac structure or function” for short) (C57BL/6J mice; cotreatment Δ^9-THC 1 mg/kg i.p. and genistein 50 mg/kg p.o.) was “did not affect cardiac structure or function” and the “cardiac structure or function” value (C57BL/6J mice; [12]) was “did not affect cardiac structure or function”. For the same molecule, the “CD68-positive area in ligated carotid artery” value (Apoe^−/− mice; [13]) was “reduced”, the “F4/80-positive area in ligated carotid artery” value (Apoe^−/− mice; [13]) was “decreased” and the “plaque size in ligated carotid artery (oil red O)” value (Apoe^−/− mice; [13]) was “ameliorated the plaque size”. For the same molecule, the “toxicity to various organs” value (various organs) was “did not exhibit any toxicity to various organs”, the “expression of ILIA” value ([2]; CB1 CRISPRi hiPSC-ECs) was “increased significantly” and the “TNF-α-increased expression of CXCR8” value ([2]; WT hiPSC-ECs) was “attenuated”. For the same molecule, the “TNF-α-increased expression of IL6” value ([2]; WT hiPSC-ECs) was “attenuated”, the “expression of ILIA” value ([2]; WT hiPSC-ECs) was “decreased” and the “TNF-α-increased expression of SOD1” value ([2]; WT or CB1 CRISPRi hiPSC-ECs) was “not attenuated”. The “blood-brain barrier (BBB) penetration” value [3] was “poor blood-brain barrier (BBB) penetration”, the “Δ^9-THC-induced NF-κB phosphorylation” value (hiPSC-ECs [4]; [11]) was “attenuated NF-κB phosphorylation” and the “Δ^9-THC-induced p38 phosphorylation” value (hiPSC-ECs [4]; [11]) was “decreased”.
For CCCCCc1cc(O)c2c(c1)OC(C)(C)[C@@H]1CCC(C)=C[C@@H]21 [Δ^9-THC, Δ^9-tetrahydrocannabinol], the TLR4 expression (hiPSC-ECs [1]; 5 μM Δ^9-THC alone) was “induced TLR4 expression”, the “expression of ROS-related genes NOX1 and NOS2” value (hiPSC-ECs [1]; 5 μM Δ^9-THC alone) was “upregulated” and the “mRNA expression of antioxidant-related genes (SOD1, SOD2, CAT, GPX1)” value (hiPSC-ECs [1]; 5 μM Δ^9-THC alone) was “decreased mRNA expression”. For the same molecule, the “expression of I kappa B (NFKBIA)” value (hiPSC-ECs [1]; Δ^9-THC alone) was “inhibited”, the “expression of proinflammatory cytokines and chemokines” value (hiPSC-ECs [1]; Δ^9-THC alone) was “increased” and the “cardiac structure or function” value (C57BL/6J mice; [12]) was “did not affect cardiac structure or function”. For the same molecule, the “CD68-positive area in ligated carotid artery” value (Apoe^−/− mice; Δ^9-THC 1 mg/kg) was “significantly increased”, the “F4/80-positive area in ligated carotid artery” value (Apoe^−/− mice; Δ^9-THC 1 mg/kg) was “significantly increased” and the “plaque area in ligated carotid artery (oil red O)” value (Apoe^−/− mice; Δ^9-THC 1 mg/kg) was “increased”. For the same molecule, the antioxidant-related gene expression (HUVECs) was “reduced the antioxidant-related gene expression”, the “expression of inflammation-related genes” value (HUVECs) was “induced the expression of inflammation-related genes” and the plasma concentration [5] was roughly 100 ng/mL. The “cytotoxicity (cell viability)” value (hiPSC-ECs [6]) was “induced cytotoxicity”, the “monocyte adhesion to hiPSC-ECs” value (hiPSC-ECs [7]) was “increased adhesion” and the “cytotoxicity (cell viability)” value [8] was “induced cytotoxicity”. For the same molecule, the “cellular oxidative stress (CellROX)” value (hiPSC-ECs [9]) was “induced cellular oxidative stress”, the “p65 (NF-κB) phosphorylation” value (hiPSC-ECs [4]; 5 μM Δ^9-THC alone) was “caused p65 phosphorylation” and the “phosphorylation of p38” value (hiPSC-ECs [4]; 5 μM Δ^9-THC alone) was “increased phosphorylation of p38”. The “nuclear translocation of NF-κB (p65)” value (hiPSC-ECs [4]; 5 μM Δ^9-THC) was “induced” and the “time the induced expression of proinflammatory cytokines and chemokines was sustained (recovery time)” value (hiPSC-ECs [10]) was 8 to 10 days.
